Reference: patent US11612651B2, “Steroid acid-based immunogen enhancers” (priority 2021, dated 2023)

Tests used:
[1] = tested on: OVA-responding OT-I (CD8) cells; assay: Antigen cross-presentation assay: pulsed BMDCs co-cultured with OT-I CD8 T-cells, IFN-gamma by ELISA; type: cell-based, mouse; conditions: BMDCs pulsed 3 h with highest enhancer:OVA ratios tested; co-culture with OT-I CD8 T-cells; FIG. 1
Method: Mouse BMDCs were pulsed for 3 hours with antigen (OVA) alone, cholic acid (CA) alone, a cholic acid-NLS peptide conjugate (CA-SV40NLS) alone, different ratios of CA to antigen (CA:OVA=22:1, 12:1, 8:1, 4:1, and 2:1), or different ratios of an cholic acid-NLS peptide conjugate to antigen (CA-SV40NLS:OVA=22:1, 12:1, 8:1, 4:1, and 2:1). The pulsed BMDCs were then co-cultured with OT-I mouse-derived CD8 T-cells and IFN-gamma levels were quantified as a measure of cross presentation activity.
Mouse bone marrow derived dendritic cells (BMDCs) were generated by flushing the whole marrow from mouse femurs using RPMI™ 1640 supplemented with 10% fetal bovine serum (FBS), 50 U/mL Penicillin-Streptomycin, 2 mM L-glutamine, 10 mM HEPES, 1% MEM Non-essential Amino Acids, 1 mM Sodium Pyruvate, 0.5 mM beta-mercaptoethanol. […] Mature DCs were assessed by flow cytometry for their surface expression of CD3, CD19, NK1.1, CD11c, CD80, CD86, and I-Ab.
To evaluate antigen cross-presentation, cells were seeded at 25×10^3 cells per well in 24-well plates (Corning; Massachusetts, United States), then pulsed with antigens or antigen-containing mixtures at different concentrations for 3 h. […] After 72 hours, supernatants were collected and used to quantify cytokine production by commercial enzyme-linked immunosorbent assays (ELISAs). […]

B3Z cells = assay: Antigen-presentation assay using the B3Z reporter system, BMDCs as antigen presenting cells; type: cell-based, mouse; conditions: BMDCs; molar ratio (bile acid/peptide/conjugate):antigen 4:1; mixed with OVA; FIG. 2
Text: For this experiment, BMDCs were used as the antigen presenting cells (n=6) and the molar ratio (bile acid/peptide/conjugate): antigen was 4:1. Controls tested included no antigen (“PBS”), antigen alone (“OVA alone”), unconjugated NLS peptide (“SV40NLS”), unconjugated cholic acid mixed with OVA (“CA”), and the positive control peptide SIINFEKL (SEQ ID NO: 9) mixed with OVA (“SIINFEKL”). The dashed line represents the signal obtained with OVA alone. Bile acids: cholic acid (CA); glycodeoxycholic acid (GDCA); glycochenodeoxycholic acid (GCDCA); ursodeoxycholic acid (UDCA); and lithocholic acid (LCA).
The dashed line represents the signal obtained with OVA alone. The readout was taken after 24 h of incubation and error bars represent SD (n=6). For this experiment, BMDCs were used as the antigen presenting cells.
The dashed line represents the signal obtained with OVA alone. Readout was taken after 24 h of incubation from a single experiment. The molar ratio of CA-peptide conjugate: OVA was 22:1. For this experiment, BMDCs were used as the antigen presenting cells.
For this experiment, BMDCs were used as the antigen presenting cells. The dashed line represents the signal obtained with OVA alone. Readout was taken after 24 h of incubation from a single experiment. The molar ratio of CA-peptide conjugate: OVA was as follows: CA-GWG-SV40NLS (12:1); CA-hnRNP M NLS (12:1); CA-NLS2-RPS17 NLS (22:1); CA-HuR NLS (22:1); CA-cMyc NLS (2:1); CA-NLS3-RPS17 NLS (22:1); CA-NLS2-RG-RPS17 NLS (2:1); CA-PQBP1 NLS (8:1); CA-hnRNPA1 M9 NLS (22:1); and CA-SV40 NLS (2:1).
Various bile acid-NLS conjugates were screened using the B3Z reporter system. The B3Z cell line is a T-cell hybridoma specific for the H2-K^b-SIINFEKL complex. Once activated via its TCR, the LacZ reporter gene (under the NFAT promoter control) is expressed. Briefly, 1.5×10^5 BMDCs or 2.5×10^5 MSCs were co-cultured with 5×10^4 B3Z cells treated with the mixing conditions of ovalbumin (OVA) and bile acid-NLS conjugates for overnight at 37° C. with 5% CO2. The following day, all cells were washed twice with PBS (pH 7.4), and the cell pellets were lysed by adding 100 μL of a lysis buffer containing 0.15 mM chlorophenol red-beta-D-galactopyranoside (CPRG) substrate (Calbiochem, La Jolla, Calif.), 0.125% NP40 (EMD Sciences, La Jolla, Calif.), 9 mM MgCl2 (Aldrich, USA) and 100 mM 2-mercaptoethanol in PBS. After a 5- or 24-h incubation at 37° C., absorbance was taken at 570 nm with 636 nm as the reference wavelength. For these experiments, OVA was re-suspended in PBS (pH 7.3) at 5-10 mg/mL. The different bile acid-NLS conjugates were re-suspended in H2O at 10 mg/mL. Bile acid-NLS conjugate: antigen mixtures were prepared at different molar ratios according to Table 2.
Variants of CA-SV40NLS were synthesized in order to explore structure-activity relationships relating to the antigen cross-presentation enhancing activity observed for this conjugate. More particularly, conjugates having different bile acids conjugated to the SV40NLS peptide (SEQ ID NO: 1) were synthesized and their effect on antigen presentation was evaluated by using the B3Z reporter system with the OVA antigen as described in Example 1. […] In FIG. 2, no increase in antigen cross-presentation over the antigen alone (“OVA”) was observed when OVA was mixed with either unconjugated cholic acid (“CA”) or SV40NLS peptide (“SV40NLS”), although lower sensitivity of the B3Z reporter system as compared to the OT-I CD8 T cell-based assay used in FIG. 1 may have been a factor.
Further variants of CA-SV40NLS were synthesized in which the SV40NLS peptide was replaced with peptides comprising other NLS's (Table 3) and the antigen presentation activities of the CA-NLS peptide conjugates were evaluated using the B3Z reporter system as described in Example 1. The following conjugate:antigen molar ratios were tested for each conjugate: 2:1, 4:1, 8:1, 12:1 and 22:1. […]

GII.3 human norovirus = conditions: host intestinal cells; free bile acids; cited from earlier work

C[C@H](CCC(=O)O)[C@H]1CC[C@H]2[C@@H]3[C@H](O)C[C@@H]4C[C@H](O)CC[C@]4(C)[C@H]3C[C@H](O)[C@]12C [CA, cholic acid]
increase in the amount of IFN-gamma produced, as compared to BMDCs pre-pulsed with the OVA antigen alone [1]: up to 3 fold
antigen cross-presentation (B3Z response) compared with OVA alone (B3Z cells): no increase
effect on GII.3 human norovirus infection and replication (GII.3 human norovirus): increase GII.3 human norovirus infection and replication
